We go through 2 compounds from patent US20200306295A1, “METHOD AND DEVICE FOR ANNIHILATION OF Staphylococcus aureus” (priority 2017, published 2020).

Values after ≈ are worked out from the molar mass of the structure shown.

The test system of experiment [1] is MRSA NRS384 (MRSA USA 300). Kind of experiment: MIC by standard broth-dilution method. In kind it is cell-based, S. aureus. Conditions: Staphylococcus aureus; MRSA NRS384 (MRSA USA 300); N = 3; read-out: MIC. The text has this:
(§1) For each measurement, three independent replicates were applied.

In experiment [2] the test system is stationary-phase MRSA. Kind of experiment: Time-killing assay in PBS with or without pulsed laser (CFU enumeration). Format: cell-based, S. aureus. The settings on record: after 6 hours in PBS. How it is done: (§2) To quantify viable bacterial cells, CFU experiments were performed. 100 μl of sample analyte was transferred into a 96-well plate and then three or four ten-fold serial dilution achieved by transferring 20 μl bacterial culture into 180 μl 1×PBS in the next dilution row. After serial dilution, an aliquot (4 μl) from each well was spotted onto sterile TSA plates. After incubating the plates overnight (˜18 hours) at 37° C., the colonies were enumerated, and cell number was calculated in CFU/ml. For each CFU enumeration experiment, three independent replicates were applied.
(§3) Stationary-phase MRSA was prepared, washed and resuspended in 1×PBS at two-times of its original concentration. […] After laser treatment, the droplets were resuspended into 200 μl of 1×PBS (1:40 dilution) supplemented with antibiotics at different concentrations in a mini centrifuge tube (89166-278, VWR international). For example, daptomycin was added into MRSA solution after laser treatment at desired concentration of 0×MIC, 5×MIC, 10×MIC, 30×MIC, or 100×MIC supplemented with 50 μg/ml CaCl2). Corresponding groups without laser treatment were also conducted for comparison. These tubes were incubated within an orbital incubator (37° C., 200 rpm) for different incubation time. At each specific time point, 40 μl of aliquot from each group was transferred to a 96-well plate for follow-up CFU enumerating assay. In the case of tobramycin, additional antibiotic washing by 1×PBS was performed before the CFU experiment to avoid antibiotic interference. For time-killing assay in fresh human whole blood, similar protocol was followed as above, except that 1×PBS was replaced by fresh human whole blood and the initial stationary-phase MRSA solution was diluted by ten times with a concentration of ˜10^7 CFU/ml.

Experiment [3] deals with VRSA and multidrug-resistant MRSA clinical isolates. Kind of experiment: Time-killing assay on resistant clinical isolates. In kind it is cell-based, S. aureus. The settings on record: 10 MIC daptomycin and laser treatment. How it is done: as §2
as §3, with “In the case of tobramycin, additional antibiotic washing by 1×PBS was performed before the CFU experiment to avoid antibiotic interference. For time-killing assay in fresh human whole blood, similar protocol was followed as above, except that 1×PBS was replaced by fresh human whole blood and the initial stationary-phase MRSA solution was diluted by ten times with a concentration of ˜10^7 CFU/ml.” left out

Another experiment relates to MRSA USA300. Description: In vivo mice skin infection model (daptomycin, pulsed laser). Also on record: species or system BALB/c mice. How it is done:
The in vivo mice experiment was conducted following protocols approved by Boston University Animal Care and Use Committee (BUACUC). To initiate the formation of a skin wound, five groups (N=5) of eight-week-old female BALB/c mice (obtained from the Jackson Laboratory, ME, USA) were disinfected with ethanol (70%) and shaved on the middle of their back (approximately a one-inch by one-inch square region around the injection site) one day prior to infection as described from a reported procedure^45. To prepare the bacterial inoculum, an aliquot of overnight culture of MRSA USA300 was transferred to fresh TSB and shaken at 37° C. until an OD600 value of ˜1.0 was achieved. The cells were centrifuged, washed once with 1×PBS, re-centrifuged, and then re-suspended in 1×PBS. Mice subsequently received an intradermal injection (40 μl) containing ˜10^9 CFU/ml MRSA USA300. An open wound formed at the site of injection for each mouse, ˜48 hours post-infection. Topical treatment was initiated subsequently with each group of mice receiving the following: daptomycin (1%, using glycerol as the vehicle), pulsed laser (1 cm diameter illumination area, 10 min treatment time, 120 mW), or a combination of pulsed laser and daptomycin. One group of mice was left as the control. […] Data were analyzed via an unpaired t-test, utilizing Origin 2019b (OriginLab Corporation).

The subject of experiment [4] is stationary-phase MRSA. Description: Daptomycin-BODIPY membrane insertion assay. Format: cell-based, S. aureus. The settings on record: daptomycin labeled with BODIPY. How it is done: To study how the membrane fluidity change affects the insertion of membrane-targeting antibiotics, we applied daptomycin-BODIPY membrane insertion assay detailed as below. Firstly, we conjugated daptomycin with a fluorescent dye, BODIPY STP ester (B10006, Thermo Fisher Scientific). Briefly, 10 mg of daptomycin (103060-53-3, Acros Organics) was dissolved into 1 ml of 0.1 M sodium bicarbonate solution. Then 100 μl of BODIPY STP ester (B10006, Thermo Fisher Scientific, stock: 1 mg/ml in DMSO) was added to the daptomycin solution drop by drop. Then the mixed solution reacted under stirring at room temperature for 1 hour. Afterwards, the solution was under overnight dialysis against extensive 0.1 M sodium bicarbonate solution. After dialysis, the mixed solution was lyophilized. […] After treatment, bacterial droplets were collected into 985 μl of sterile pre-warned TSB medium containing 150 μg/ml of CaCl2. 10 μl of daptomycin-BODIPY (stock: 3 mg/ml in 1×PBS) was added to the above solution, and incubated for 30 min at 37° C. […] Confocal laser scanning microscope (FV3000, Olympus) was conducted to quantify daptomycin-BODIPY distribution and its signal intensity at an excitation wavelength of 488 nm. Quantitative analysis of the signal from individual MRSA cells was performed among groups with different laser treatment time.

A further experiment concerns VRSA NR-46419 (VRSA 9). Kind of experiment: MIC by standard broth-dilution method. In kind it is cell-based, S. aureus. Conditions: Staphylococcus aureus, N = 3.
Description: as §1

Experiment [5] relates to stationary-phase MRSA. Format: cell-based, S. aureus. The settings on record: checkerboard assay, MRSA growth inhibition. How it is done: To monitor the response of bacteria to laser treatment alone, antibiotic treatment alone, or their combinations, bacterial growth was continuously monitored overnight (18 hours with an interval of 30 min at 37° C.) by measuring optical density at 600 nm (OD600). Depending on the specific assay applied, the bacterial cells were suspended in 100 or 200 μl TSB medium under different treatment schemes (antibiotic alone, laser treatment alone, antibiotic plus laser treatment) with a final concentration of ˜10^5 CFU/ml. Bacterial growth was defined as OD600≥0.1.
Stationary-phase bacterial cells was washed and resuspended in 1×PBS at its original concentration. […] The treated droplet was collected and resuspended into 5 ml TSB (1:1000 dilution) for each group. Corresponding groups without laser treatment were also conducted for comparison. The bacterial suspensions were transferred to a 96-well plate with antibiotics supplemented into with the first row of the 96-well plate for eight two-fold serial dilution starting at a desired antibiotic concentration (e.g. ofloxacin: 2 μg/ml). After serial dilution, bacterial growth within the same well plate was monitored by a plate reader for 18 hours (OD600, 37° C.). The checkerboard assay was used for groups with laser treatment alone or laser plus antibiotic treatment. Two independent experiments of checkerboard assay were performed for each antibiotic with or without laser treatment. Based on the readout of OD600, a heat map was created to evaluate the antibiotic potentiation or synergistic effect enabled by STX photolysis.
Based on the checkerboard results, the fractional inhibitory concentration index (FICI), a synergy evaluation method between two antibiotics, was calculated as below: FICI=MIC of antibiotic A in combination/MIC of antibiotic A alone+MIC of antibiotic B in combination/MIC of antibiotic B alone. The interaction of the two antibiotics was defined as below: synergy if FICI≤0.5, no interaction if 0.5<FICI≤4, antagonism if FICI>4^46. […] Considering this reason, the synergy calculation was simplified as below: FICI=MIC of antibiotic A in combination with laser treatment/MIC of antibiotic A alone with synergy defined by FICI≤0.5.

Experiment [6] has as its system S. aureus (ATCC 6538) biofilm. Conditions: antibiotic alone.
Experiment [7] deals with MRSA USA400 inside murine macrophage cells (J774). Kind of experiment: Intracellular MRSA infection model in J774 macrophage cells. The settings on record: infected macrophage cells; vancomycin 2 μg/mL (4×MIC).

Regarding `CCCCCCCCCC(=O)N[C@@H](Cc1c[nH]c2ccccc12)C(=O)N[C@H](CC(N)=O)C(=O)N[C@@H](CC(=O)O)C(=O)N[C@@H]1C(=O)NCC(=O)N[C@@H](CCCN)C(=O)N[C@@H](CC(=O)O)C(=O)N[C@H](C)C(=O)N[C@@H](CC(=O)O)C(=O)NCC(=O)N[C@H](CO)C(=O)N[C@@H]([C@H](C)CC(=O)O)C(=O)N[C@@H](CC(=O)c2ccccc2N)C(=O)O[C@@H]1C` [Daptomycin, daptomycin], the MIC in experiment [1] stood at 8 µg/mL (≈ 4.94 µM). The “reduction of stationary-phase MRSA” value in the experiment on stationary-phase MRSA [2] (10 MIC with 5 min laser treatment) is reported as “more than 3.5 log”; in the experiment with stationary-phase MRSA [2] (antibiotic alone at 100 MIC), 1 log. Moreover, the “eradication by synergistic therapy” value in [3] is “effective in eradicating”. Moreover, the “cell killing in infected skin (CFU)” value with MRSA USA300 (10 mg/ml daptomycin alone, topical) is listed as 81%; in the experiment with MRSA USA300 (10 mg/ml daptomycin plus 10 min laser), “around 95%”. The “cellular uptake / membrane insertion with laser treatment vs untreated” value in the experiment on stationary-phase MRSA [4] was “significantly more daptomycin uptake”.
In the case of `CN[C@H](CC(C)C)C(=O)N[C@H]1C(=O)N[C@@H](CC(N)=O)C(=O)N[C@H]2C(=O)N[C@H]3C(=O)N[C@H](C(=O)N[C@H](C(=O)O)c4cc(O)cc(O)c4-c4cc3ccc4O)[C@H](O)c3ccc(c(Cl)c3)Oc3cc2cc(c3O[C@@H]2O[C@H](CO)[C@@H](O)[C@H](O)[C@H]2O[C@H]2C[C@](C)(N)[C@H](O)[C@H](C)O2)Oc2ccc(cc2Cl)[C@H]1O` [Vancomycin, vancomycin], in the experiment with VRSA NR-46419 (VRSA 9), the MIC is 256 µg/mL (≈ 177 µM). Besides, the “synergism between laser treatment and antibiotic” value in the experiment with stationary-phase MRSA [5] is listed as “no synergism”. Also, the “MRSA killed inside biofilm” value in experiment [6] stood at 70%. Also, the “killing of intracellular MRSA 400 (CFU)” value in experiment [7] is “no effect”.
